Tests used:
[1] = target: GSK3β (Glycogen synthase kinase-3 beta) (Homo sapiens, UniProt P49841); experiment: Assay 6 - GSK3β assay (ThermoFisher Z-Lyte); type: biochemical; conditions: geometric mean; ATP Conc: 10 μM; read-out: Assay 6 (GSK3β FRET-Z-Lyte CR) GMean IC50 (μM) ATP Conc: 10
Procedure, shortened: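 Z-Lyte fluorescence kinase assay with 0.22-0.92 ng GSK3β and 2 μM Ser/Thr 09 peptide in 50 mM HEPES pH 7.5, 10 mM MgCl2, 1 mM EGTA, 0.01% BRIJ-35. Kinase reaction 60 min at room temperature, then 60 min development. 10-point 3-fold titration from 10 μM in 1% DMSO, fitted to a sigmoidal dose-response curve.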

PCSK9 [2] = target: T1, PCSK9 (Homo sapiens, UniProt Q8NBP7, G670E/V474I); experiment: biochemical
PCSK9 [3] = target: T1, PCSK9; experiment: Assay 3 - PCSK9 LDL-C uptake assay in HepG2 cells; type: cell-based; design: TEV cleavage site (C); His6 (C); host or cells: added to HepG2 cells (ATCC #HB-8065); conditions: 125 nM PCSK9, pHrodo Red-LDL, read-out: Assay 3 LDL uptake potency
Procedure, shortened: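 HepG2 cells seeded 24 h, then given compound (half-log series, top 10 μM) plus PCSK9 at 125 nM final for 24 h at 37 °C. pHrodo Red-LDL (6 μg/mL) added; uptake imaged at 4 h and 24 h. Signal normalized between DMSO and 100 nM evolocumab controls, four-parameter logistic fit.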

T1 sequence (Q8NBP7 with tags, fused parts or gaps V474I/G670E): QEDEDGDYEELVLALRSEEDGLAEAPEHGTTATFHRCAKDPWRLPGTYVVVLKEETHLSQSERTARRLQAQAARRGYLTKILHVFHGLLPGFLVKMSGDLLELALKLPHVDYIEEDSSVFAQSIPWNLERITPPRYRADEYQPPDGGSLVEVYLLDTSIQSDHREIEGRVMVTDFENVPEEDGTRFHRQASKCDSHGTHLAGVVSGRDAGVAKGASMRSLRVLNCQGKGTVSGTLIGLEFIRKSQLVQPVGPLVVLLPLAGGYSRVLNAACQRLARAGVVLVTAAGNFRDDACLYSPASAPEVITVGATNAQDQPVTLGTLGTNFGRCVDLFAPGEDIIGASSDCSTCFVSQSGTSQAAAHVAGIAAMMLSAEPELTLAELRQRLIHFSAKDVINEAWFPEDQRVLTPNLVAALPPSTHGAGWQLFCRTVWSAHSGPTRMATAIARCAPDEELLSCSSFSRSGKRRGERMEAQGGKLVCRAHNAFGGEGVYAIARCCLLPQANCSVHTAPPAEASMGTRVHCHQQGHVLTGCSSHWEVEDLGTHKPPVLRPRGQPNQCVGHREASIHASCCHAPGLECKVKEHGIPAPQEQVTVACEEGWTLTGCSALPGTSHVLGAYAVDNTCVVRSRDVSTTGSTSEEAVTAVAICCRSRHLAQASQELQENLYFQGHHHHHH
Chain of GSK3β (Glycogen synthase kinase-3 beta) (P49841 whole entry): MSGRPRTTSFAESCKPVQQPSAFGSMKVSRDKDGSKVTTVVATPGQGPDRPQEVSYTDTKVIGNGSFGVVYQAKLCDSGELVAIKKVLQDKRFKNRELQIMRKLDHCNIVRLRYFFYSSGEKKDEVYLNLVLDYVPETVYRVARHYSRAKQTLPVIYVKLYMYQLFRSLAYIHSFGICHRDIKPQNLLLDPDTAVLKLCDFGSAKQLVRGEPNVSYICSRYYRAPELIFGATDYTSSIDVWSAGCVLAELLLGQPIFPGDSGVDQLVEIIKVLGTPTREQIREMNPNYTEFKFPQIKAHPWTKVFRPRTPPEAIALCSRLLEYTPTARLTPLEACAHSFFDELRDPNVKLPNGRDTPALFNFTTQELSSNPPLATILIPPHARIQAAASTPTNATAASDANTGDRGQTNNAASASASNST

SMILES | IC50 [1] [µM] | IC50 (PCSK9 [2]) [nM] | EC50 (PCSK9 [3]) [nM]
Cc1cccn(-c2ccc(N[C@H]3CC[C@H](Nc4cnc(Cl)cn4)C3)nc2)c1=O [Example 24, 6′-(((1S,3S)-3-((5-Chloropyrazin-2-yl)amino)cyclopentyl)amino)-3-methyl-2H-[1,3′-bipyridin]-2-one] | > 10 | 4.3 | 400
Cn1c(=O)n(-c2ccc(N[C@H]3CC[C@H](Nc4cnc(Cl)cn4)C3)nc2)c2ccccc21 [Example 27, 1-(6-(((1S,3S)-3-((5-Chloropyrazin-2-yl)amino)cyclopentyl)amino)pyridin-3-yl)-3-methyl-1,3-dihydro-2H-benzo[d]imidazol-2-one] | > 10 | 1.7 | 100
O=c1ccc(-c2ccc(F)cc2)cn1-c1ccc(N[C@H]2CC[C@H](Nc3cnc(Cl)cn3)C2)nc1 [Example 32, 6′-(((1S,3S)-3-((5-Chloropyrazin-2-yl)amino)cyclopentyl)amino)-5-(4-fluorophenyl)-2H-[1,3′-bipyridin]-2-one] | > 10 | 7.9 | 200
O=C(O)c1ccc(=O)n(-c2ccc(N[C@H]3CC[C@H](Nc4cnc(Cl)cn4)C3)nc2)c1 [Example 33, 6′-(((1S,3S)-3-((5-Chloropyrazin-2-yl)amino)cyclopentyl)amino)-2-oxo-2H-[1,3′-bipyridine]-5-carboxylic acid] | > 10 | 12 | 100
O=c1ccc2ccccc2n1-c1ccc(N[C@H]2CC[C@H](Nc3cnc(Cl)cn3)C2)nc1 [Example 35, 1-(6-(((1S,3S)-3-((5-Chloropyrazin-2-yl)amino)cyclopentyl)amino)pyridin-3-yl)quinolin-2 (1H)-one] | > 10 | 2 | 100
COc1cccn(-c2ccc(N[C@H]3CC[C@H](Nc4cnc(C)cn4)C3)nc2)c1=O [Example 36, 3-Methoxy-6′-(((1S,3S)-3-((5-methylpyrazin-2-yl)amino)cyclopentyl)amino)-2H-[1,3′-bipyridin]-2-one] | > 10 | 4.1 | 100
Cc1cnc(N[C@H]2CC[C@H](Nc3ccc(-n4c(=O)ccc5cccnc54)cn3)C2)cn1 [Example 37, 1-(6-(((1S,3S)-3-((5-Methylpyrazin-2-yl)amino)cyclopentyl)amino)pyridin-3-yl)-1,8-naphthyridin-2(1 H)-one] | > 10 | 6.5 | 200
Cc1cnc(N[C@H]2CC[C@H](Nc3ccc(-n4c(=O)n(C)c5cccnc54)cn3)C2)cn1 [Example 42, 1-Methyl-3-(6-(((1S,3S)-3-((5-methylpyrazin-2-yl)amino)cyclopentyl)amino)pyridin-3-yl)-1,3-dihydro-2H-imidazo[4,5-b]pyridin-2-one] | > 10 | 5.8 | 200
Cc1cnc(N[C@H]2CC[C@H](Nc3ccc(-n4cccc(C)c4=O)cn3)C2)cn1 [Example 44, 3-Methyl-6′-(((1S,3S)-3-((5-methylpyrazin-2-yl)amino)cyclopentyl)amino)-2H-[1,3′-bipyridin]-2-one] | > 10 | 5.5 | 300
Cc1cnc(N[C@H]2CC[C@H](Nc3ccc(-n4c(=O)n(C)c5ccccc54)cn3)C2)cn1 [Example 45, 1-Methyl-3-(6-(((1S,3S)-3-((5-methylpyrazin-2-yl)amino)cyclopentyl)amino)pyridin-3-yl)-1,3-dihydro-2H-benzo[d]imidazol-2-one] | > 10 | 1.5 | 200
Cc1cnc(N[C@H]2CC[C@H](Nc3ccc(-n4c(=O)[nH]c5ccccc54)cn3)C2)cn1 [Example 46, 1-(6-(((1S,3S)-3-((5-Methylpyrazin-2-yl)amino)cyclopentyl)amino)pyridin-3-yl)-1,3-dihydro-2H-benzo[d]imidazol-2-one] | > 10 | 3 | 700
Cc1cnc(N[C@H]2CC[C@H](Nc3ccc(-n4cccc(Cl)c4=O)cn3)C2)cn1 [Example 47, 3-Chloro-6′-(((1S,3S)-3-((5-methylpyrazin-2-yl)amino)cyclopentyl)amino)-2H-[1,3′-bipyridin]-2-one] | > 10 | 2.1 | 100
Cn1c(=O)n(-c2ccc(N[C@H]3CC[C@H](Nc4cnc(OC(F)F)cn4)C3)nc2)c2ccccc21 [Example 82, 1-(6-(((1S,3S)-3-((5-(Difluoromethoxy)pyrazin-2-yl)amino)cyclopentyl)amino)pyridin-3-yl)-3-methyl-1,3-dihydro-2H-benzo[d]imidazol-2-one] | > 10 | 2.5 | 200
COc1cccn(-c2ccc(N[C@H]3CC[C@H](Nc4cnc(OC(F)F)cn4)C3)nc2)c1=O [Example 94, 6′-(((1S,3S)-3-((5-(Difluoromethoxy)pyrazin-2-yl)amino)cyclopentyl)amino)-3-methoxy-2H-[1,3′-bipyridin]-2-one] | > 10 | 7.7 | 300
Cc1cnc(N[C@H]2CC[C@H](Nc3ccc(-n4cccc(C#N)c4=O)cn3)C2)cn1 [Example 103, 6′-(((1S,3S)-3-((5-Methylpyrazin-2-yl)amino)cyclopentyl)amino)-2-oxo-2H-[1,3′-bipyridine]-3-carbonitrile] | > 10 | 5.7 | 200
COc1cccn(-c2ccc(N[C@H]3CC[C@H](Nc4cnc(C5CC5)cn4)C3)nc2)c1=O [Example 106, 6′-(((1S,3S)-3-((5-Cyclopropylpyrazin-2-yl)amino)cyclopentyl)amino)-3-methoxy-2H-[1,3′-bipyridin]-2-one] | > 10 | 4.5 | 200
COc1ccnn(-c2ccc(N[C@H]3CC[C@H](Nc4cnc(C)cn4)C3)nc2)c1=O [Example 226, 4-Methoxy-2-(6-(((1S,3S)-3-((5-methylpyrazin-2-yl)amino)cyclopentyl)amino)pyridin-3-yl)pyridazin-3 (2H)-one] | > 10 | 4 | 200
